Source: patent US11459341B1, “Organic anion lithium ionic cocrystal compounds and compositions” (UNIVERSITY OF SOUTH FLORIDA, priority 2013, dated 2022)

Test system: BV2 microglia cells
Test: NO (nitrite) production by LPS-activated BV2 microglia, Griess Reagent System
Assay type: cell-based
Conditions: treated 1 hour before 100 ng/ml LPS, nitrite in media 24 hours later
Description: BV2 microglia cells were treated with LIC (LiCl), LSC (Lithium saccharinate), LSCBTN and LSCSAR at 12.5 and 25 mM in DMEM for 1 hour prior to activation of microglia by 100 ng/ml LPS. Nitrite (NO^2−), a stable breakdown product of NO, was measured in the media 24 hours later using a Griess Reagent System (Promega).

Structure (SMILES)	inhibition of NO production by LPS-activated BV2 microglia (25 mM)	attenuation of NO production by LPS-activated BV2 microglia, comparison between lithium forms (12.5 and 25 mM (both/all concentrations tested))
[Cl-].[Li+] [LIC, LiCl]	only partially effective	
O=C1[N-]S(=O)(=O)c2ccccc21.[Li+] [LSC, Lithium saccharinate]		outperformed LIC
